Data published in ChEMBL document CHEMBL1142922, “Amphipathic benzoic acid derivatives: synthesis and binding in the hydrophobic tunnel of the zinc deacetylase LpxC” (Bioorg Med Chem, 2007).
Active and inactive are the calls of the source. The calls are words filed in the database; no cut-off is given here.

Assays:
[1] = molecular target: T1, UDP-3-O-acyl-N-acetylglucosamine deacetylase (Aquifex aeolicus (strain VF5)) (UniProt O67648); assay: (§1) Binding affinity to Aquifex aeolicus LpxC by isothermal titration calorimetry
T1 sequence (whole entry): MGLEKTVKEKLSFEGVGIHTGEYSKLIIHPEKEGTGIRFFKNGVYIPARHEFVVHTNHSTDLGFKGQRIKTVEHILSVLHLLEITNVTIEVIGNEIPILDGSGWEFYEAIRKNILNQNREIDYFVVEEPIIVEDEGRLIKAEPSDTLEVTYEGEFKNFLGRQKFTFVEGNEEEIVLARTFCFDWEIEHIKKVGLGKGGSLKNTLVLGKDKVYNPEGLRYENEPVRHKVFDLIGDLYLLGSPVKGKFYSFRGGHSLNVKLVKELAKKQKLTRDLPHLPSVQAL

[2] = molecular target: T2, UDP-3-O-acyl-N-acetylglucosamine deacetylase (Aquifex aeolicus (strain VF5), UniProt O67648); assay: as §1
T2 sequence (O67648 whole entry): T1 sequence (whole entry)

| Compound | Activity [1] | Kd [2] [µM] |
| --- | --- | --- |
| CCCc1ccc(-c2ccc(C(=O)O)cc2)cc1 | inactive | – |
| CCCCCCCOc1ccc(C(=O)O)cc1O | – | 9 |
| COc1ccc(C(=O)O)cc1 | inactive | – |
| CCCCCCCOc1ccc(C(=O)O)cc1Cl | – | 30 |
| CCCCCCCOc1ccc(CC(=O)O)cc1 | – | 2.6 |
| CCCCCCCOc1ccc(C(=O)O)cc1OC | – | 8.6 |
| CCCCCCCc1ccc(C(=O)O)cc1 | – | 35 |
| CCCCCCCOc1ccc(C(=O)O)cc1 | – | 2.3 |
| CCCCCC/C=C/c1ccc(C(=O)O)cc1 | – | 6.2 |
| CCCCCCCOc1ccc(C(=O)O)cc1[N+](=O)[O-] | – | 6.4 |
